{"source": "patent US20070202165A1", "about": "“Method for a supplemental dietary composition having a multi-phase dissolution profile” (priority 2006, published 2007)", "format_in_all_cases": "physicochemical", "key": {"[1]": {"experiment": "Kinetic dissolution experiment: samples filtered at 1 and 5 minutes", "conditions": "for weight of unfiltered sample: 1 g in 50 mL water, Whateman 41 filter", "method": "In order to expand on the results of the aforenoted experiments, a kinetic experiment was conducted to examine the change in the dissolution rate over short time periods.\n1 g of sample was added to 50 mL water in a flask with a magnetic stir bar on a stirrer set at constant speed. Separate samples were filtered at 1 and 5 minutes. The pre-weighed filter papers (Whateman 41, particle retention 20-25 μm) were allowed to dry and the amount of sample remaining on the filter paper was determined."}, "[2]": {"experiment": "Solubility test with filtration: amount dissolved until saturated and dry powder remaining on filter paper", "conditions": "gravity filtration, filter paper dried", "protocol": "A second experiment relating to fine-milling and potential increase in bioavailability was conducted. In order to test the capacity of fine-milling to improve the rate bioavailability of substances, a simple test was performed. The test was conceived to mimic various elements involved in the processes of oral administration of a nutritional supplement. The key parameters involved were rate of dissolution and solubility, as it is understood that an ingested nutrient must be dissolved or reduced to a bio-transportable size in order to be utilized biochemically by the body.\nThe rates of dissolution and solubility of regular common nutritional supplements were compared to fine-milled versions within a fixed time.\n100 mL of water was added to a 250 mL beaker and a magnetic stirring bar was placed in the beaker. The beaker was placed on a magnetic stirrer and stirred with low speed. 1 g of a given supplemental dietary ingredient powder was added incrementally to the beaker with the stirring speed constant until the solution visually appeared saturated. […]\nThe ‘Fold Change’ represents the change in the amount of substance unable to pass through the filter as calculated by the amount of unfiltered regular substance divided by the amount of unfiltered fine-milled substance and represents the potential theoretical improvement in bioavailability."}, "[3]": {"experiment": "Time to dissolve in water, estimated by visual inspection, regular vs fine-milled ingredients", "conditions": "for Time taken to dissolve: 100 mL water, magnetic stirring", "method": "In order to determine the effect of fine-milling on the dissolution rate, initial testing was performed to examine the rate of dissolution of common supplemental dietary ingredients. For the purposes of this disclosure, the term “regular” as used herein makes reference to non-fine-milled particles. 100 mL of water was placed into a 250 mL beaker and a magnetic stirrer bar was added to the beaker. The beaker was then placed on a magnetic stirrer was set to constant speed. […] The time required to dissolve was estimated by visual inspection. Equal amounts of the fine-milled ingredients were then added to the water and the time required to dissolve was estimated by visual inspection."}}, "note": "“Also recorded” adds a separate entry of the source.", "data": [{"smiles": "CN(CC(=O)O)C(=N)N.O", "note": "[Creatine Monohydrate]", "values": [{"measurement": "Time to filter, fine-milled compared with regular samples (in words)", "setting": "[1]; 1- and 5-minute intervals", "value": "consistently longer for the fine-milled samples"}, {"measurement": "weight of unfiltered sample", "setting": "[1]; Fine-milled, filtered at 1-minute interval, listed as Creatine monohydrate, Monohydrate", "value": 0.33, "unit": "g"}, {"measurement": "weight of unfiltered sample", "setting": "[1]; Fine-milled, filtered at 1-minute interval, listed as creatine, Monohydrate", "value": 0.32, "unit": "g"}, {"measurement": "weight of unfiltered sample", "setting": "[1]; Fine-milled, filtered at 5-minute interval", "value": 0.27, "unit": "g"}, {"measurement": "weight of unfiltered sample", "setting": "[1]; Regular, filtered at 1-minute interval, listed as Creatine monohydrate, Monohydrate", "value": 0.32, "unit": "g"}, {"measurement": "weight of unfiltered sample", "setting": "[1]; Regular, filtered at 1-minute interval, listed as creatine, Monohydrate", "value": 0.33, "unit": "g"}, {"measurement": "weight of unfiltered sample", "setting": "[1]; Regular, filtered at 5-minute interval", "value": 0.40, "unit": "g"}, {"measurement": "Dry Powder On Filter", "setting": "[2]; Powder type Fine-milled", "value": 0.01, "unit": "g"}, {"measurement": "Dry Powder On Filter", "setting": "[2]; Powder type Regular", "value": 0.19, "unit": "g"}, {"measurement": "Time taken to dissolve", "setting": "[3]; Powder type Fine-milled", "value": "<5", "unit": "min"}, {"measurement": "Time taken to dissolve", "setting": "[3]; Powder type Regular (non-fine-milled)", "value": "<5", "unit": "min"}, {"measurement": "Dissolution of fine-milled compared with regular ingredient (in words)", "setting": "[3]; fine-milled vs regular, Monohydrate", "value": "dissolved at the same rate in both the fine-milled and regular formats; also recorded: did not display a difference dependent on particle size"}]}]}
